Data reported in PMC6920794, “Evaluation of Novel Chalcone-Thiosemicarbazones Derivatives as Potential Anti-Leishmania amazonensis Agents and Its HSA Binding Studies” (Biomolecules, 2019).

How the values were obtained:
[1] = system: L. amazonensis promastigotes; test: Promastigote assay (MTT); assay type: cell-based, Leishmania amazonensis; conditions: Leishmania amazonensis, after 48 h of culture (table title)
Procedure: Leishmania amazonensis (MHOM/BR/77/LTB0016) were regularly isolated from infected mice and maintained in culture as promastigotes through weekly passages in Schneider’s medium (Sigma Aldrich, St. Louis, MO, USA) supplemented with 10% (v/v) heat-inactivated fetal calf serum, penicillin (100 UI/mL), and streptomycin (100 µg/mL) at 299K. Parasites were maintained until the 10th passage. The Animal Ethics Committee of the Oswaldo Cruz Foundation (license number L026/2015) approved this study.
Promastigotes of L. amazonensis (1 × 10^6 promastigotes/mL) in the 4th day on culture in the conditions described above were incubated with the chalcones serially diluted in culture medium (0.032% v/v DMSO at the highest concentration tested) on a 96-well cell culture plate (TPP™ test plate, Switzerland). The assayed concentrations ranged from 50 to 1.56 µM for all chalcone-thiosemicarbazones (5a–g) and for pentamidine (Sigma Aldrich, St. Louis, MO, USA). […] All compounds were analyzed in at least three experiments performed in triplicate. Pentamidine was used as the reference drug and diluted in the same concentrations used for 5a–g. The vehicle (DMSO) had no effect on the parasites.
The antileishmanial activity was evaluated by adding 22 µL of 3-(4,5-dimethylthiazol-2-yl)-2-5diphenyltetrazolium bromide (MTT) at 5 mg/mL (Sigma Aldrich, St. Louis, MO, USA) to each well. After 2 h, 80 µL of DMSO was added and the optical density was determined at a wavelength of 570 nm in a microplate reader (µQuant Bio-Tek Instruments®, Winooski). The assays were carried out in triplicate in 96-well plates (Costar, New York, USA). The inhibition percentage was estimated by the comparison with the non-treated control. The values for the inhibitory concentration for 50% of the promastigotes (IC50) were calculated by a sigmoidal model.

[2] = system: L. amazonensis axenic amastigotes; test: Axenic amastigotes assay (resazurin); assay type: cell-based; conditions: Leishmania amazonensis, 72 h of culture, table title says 48 h
Procedure: Promastigote forms of L. amazonensis (MHOM/BR/77/LTB0016) were grown to a stationary phase, washed once in phosphate buffer solution (PBS) (pH = 7.4) and adjusted to 5 × 10^6 parasites/mL in Schneider’s medium, supplemented with 20% fetal bovine solution (FBS) pH = 5.5 and maintained at 305K. After 5 days of cultivation, the rounded forms without free flagella were obtained and, after heat shock, were used in the appropriate assays. To evaluate the activity against axenic amastigotes, the parasites were incubated with increasing concentrations of the prototypes (diluted in DMSO) for 72 h at 305K. These assays were performed in triplicate in 96-well flat bottom plates (Falcon Co, Franklin Lakes, USA). The leishmanicidal activity was evaluated by adding 22 μl of resazurin to each well. After 4 h, the cell viability was measured as described above. Calculation of the IC50 values was determined in relation to the control by a sigmoidal model using GraphPad Prism 6.0 software.

[3] = system: murine peritoneal macrophages; test: Macrophage cytotoxicity (resazurin); assay type: cell-based; conditions: BALB/c, mouse, 48 h, pH 7.2
Procedure: Peritoneal macrophages from albino laboratory-bred strain (BALB/c) mice were obtained in RPMI 1640 medium at pH 7.2 (Gibco, New York, NY, USA) supplemented with 10% (v/v) heat-inactivated fetal bovine serum, 100 U/mL penicillin and 0.1 mg/mL of streptomycin and distributed (1 × 10^6 macrophages/well) in triplicate in 96-well plates (Falcon Co., Franklin Lakes, USA) and incubated for 1 h in a 5% CO2 atmosphere incubator at 310K. The supernatant was removed, and the compounds were added to the plate at concentrations from 10 µM to 50 µM. Next, the cultures were incubated for 48 h in a CO2 incubator at 310K. After incubation, the supernatant was removed and a resazurin solution (50 µM) was added to each well and incubated at 310K for 4 h. Furthermore, the fluorescence was measured using a wavelength of 560 nm for excitation and 590 nm for detection (Molecular Devices, Silicon Valley, USA). Results were expressed as the percentage of viable cells compared to the control cells treated with the highest DMSO dose used to dissolve the drugs. The 50% cytotoxic concentration (CC50) was calculated using GraphPad Prism 6.0 software (GraphPad Company, San Diego, CA, USA).

[4] = target: T1, human serum albumin (HSA) (Homo sapiens, UniProt P02768); test: HSA time-resolved fluorescence decays; assay type: binding; conditions: 5e 2.78 × 10^−5 M, HSA 1.00 × 10^−5 M, room temperature
T1 construct: purchased Sigma Aldrich, St. Louis, MO, USA
T1 sequence (P02768 25-609): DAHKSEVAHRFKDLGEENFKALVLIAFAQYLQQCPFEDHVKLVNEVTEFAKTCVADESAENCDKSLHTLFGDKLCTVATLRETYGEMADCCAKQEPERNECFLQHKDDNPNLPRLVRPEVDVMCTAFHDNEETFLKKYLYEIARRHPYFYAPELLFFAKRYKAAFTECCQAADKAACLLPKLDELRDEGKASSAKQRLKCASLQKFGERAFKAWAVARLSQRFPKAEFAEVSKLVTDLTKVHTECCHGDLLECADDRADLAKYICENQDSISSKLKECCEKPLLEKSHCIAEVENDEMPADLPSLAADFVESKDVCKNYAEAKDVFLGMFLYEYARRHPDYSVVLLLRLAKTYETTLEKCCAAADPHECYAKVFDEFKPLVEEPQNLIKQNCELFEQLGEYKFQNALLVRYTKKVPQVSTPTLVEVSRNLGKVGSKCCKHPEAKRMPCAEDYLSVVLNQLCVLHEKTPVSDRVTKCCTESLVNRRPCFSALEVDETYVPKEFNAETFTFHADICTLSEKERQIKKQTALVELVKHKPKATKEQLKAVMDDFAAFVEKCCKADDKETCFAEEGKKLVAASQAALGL
Procedure: The fluorimeter model FL920 CD from Edinburgh Instruments (Edinburgh, UK), equipped with an electrically pumped laser (EPL, with λexc = 280 ± 10 nm; a pulse of 850 ps with the energy of […]; monitoring emission at 340 nm) was used for time-resolved fluorescence decays measurement. The experiment was conducted for a 3.0 mL HSA solution (1.00 × 10^−5 M, in PBS) without and in the presence of 5e (2.78 × 10^−5 M) at room temperature.

[5] = target: T1, human serum albumin (HSA); test: HSA circular dichroism (α-helix content); assay type: binding; conditions: 310K, 5e 2.78 × 10^−5 M
Procedure: Circular dichroism (CD) spectra were measured in the same equipment used in the steady-state fluorescence analysis, using 200–250 nm range at 310K (human body temperature). The experiment was conducted for a 3.0 mL HSA solution (1.00 × 10^−6 M, in PBS) in the absence and presence of 5e (2.78 × 10^−5 M). Each spectrum obtained was the average of three scans. The intensity of the signal from the CD spectra was expressed as mean residue ellipticity (MRE), defined according to Equation (7):(7) MRE=θ/10×n×l×Cp where θ, n, l and Cp are the observed CD (in millidegrees), number of amino acid residues (585 for HSA), optical pathlength of the cell (1.00 cm) and molar concentration of HSA (1.00 × 10^−6 M), respectively.
In order to calculate quantitative information on the percentage of changes in the α-helix content upon 5e binding, the resulting MRE at 208 and 222 nm (far-UV region) were analyzed according to Equations (8A) and (8B):(8A) α−helix%=(−MRE208−4000)/(33000−4000)×100 (8B) α−helix%=(−MRE222−2340)/30300×100

[6] = constant of substituent 4-X; cited from earlier work

IC50 [1]: 5.22 ± 0.75 µM
IC50 [2]: 3.19 ± 1.2 µM
HSA fluorescence lifetime τ1 in the presence of ligand [4]: 1.77 ± 0.12 ns
HSA fluorescence lifetime τ2 in the presence of ligand [4]: 5.91 ± 0.16 ns
α-helix content of HSA:5e at 222 nm ([5]; HSA alone 53.5%): 52.2%
α-helix content of HSA:5e at 208 nm ([5]; HSA alone 57.1%): 55.2%
SMILES: NC(=S)N/N=C(\C=C\c1ccc(Cl)cc1)c1ccccc1 [Compound 5e, (1E,2E)-3-(4′-chlorophenyl)-1-phenylprop-2-en-1-one thiosemicarbazone]
Macrophages LD50 [3]: 32.48 ± 1.81 µM
Hammett constant σp [6]: 0.34
Hansh constant π (lipophilicity) [6]: 0.71
Taft constant Es [6]: −0.97
molecular refractivity MR [6]: 0.60
